# Measured values published in PMC5398096 (Bioorganic & medicinal chemistry letters, 2017).
# Like-named read-outs stand apart in the source and are kept apart here.
# Tests used:
# [1] = tested on: A431 cancer cells; experiment: A431 cytotoxicity; format: cell-based, human; conditions: for A431 cytotoxicity assay: fold less active than cisplatin: relative to standard cisplatin
# [2] = biological target: EGFR (Homo sapiens, UniProt P00533); experiment: EGFR kinase inhibition, phosphotyrosine ELISA in whole cells; format: cell-based; conditions: relative to standard 24
# Chain of EGFR (P00533 25-1210): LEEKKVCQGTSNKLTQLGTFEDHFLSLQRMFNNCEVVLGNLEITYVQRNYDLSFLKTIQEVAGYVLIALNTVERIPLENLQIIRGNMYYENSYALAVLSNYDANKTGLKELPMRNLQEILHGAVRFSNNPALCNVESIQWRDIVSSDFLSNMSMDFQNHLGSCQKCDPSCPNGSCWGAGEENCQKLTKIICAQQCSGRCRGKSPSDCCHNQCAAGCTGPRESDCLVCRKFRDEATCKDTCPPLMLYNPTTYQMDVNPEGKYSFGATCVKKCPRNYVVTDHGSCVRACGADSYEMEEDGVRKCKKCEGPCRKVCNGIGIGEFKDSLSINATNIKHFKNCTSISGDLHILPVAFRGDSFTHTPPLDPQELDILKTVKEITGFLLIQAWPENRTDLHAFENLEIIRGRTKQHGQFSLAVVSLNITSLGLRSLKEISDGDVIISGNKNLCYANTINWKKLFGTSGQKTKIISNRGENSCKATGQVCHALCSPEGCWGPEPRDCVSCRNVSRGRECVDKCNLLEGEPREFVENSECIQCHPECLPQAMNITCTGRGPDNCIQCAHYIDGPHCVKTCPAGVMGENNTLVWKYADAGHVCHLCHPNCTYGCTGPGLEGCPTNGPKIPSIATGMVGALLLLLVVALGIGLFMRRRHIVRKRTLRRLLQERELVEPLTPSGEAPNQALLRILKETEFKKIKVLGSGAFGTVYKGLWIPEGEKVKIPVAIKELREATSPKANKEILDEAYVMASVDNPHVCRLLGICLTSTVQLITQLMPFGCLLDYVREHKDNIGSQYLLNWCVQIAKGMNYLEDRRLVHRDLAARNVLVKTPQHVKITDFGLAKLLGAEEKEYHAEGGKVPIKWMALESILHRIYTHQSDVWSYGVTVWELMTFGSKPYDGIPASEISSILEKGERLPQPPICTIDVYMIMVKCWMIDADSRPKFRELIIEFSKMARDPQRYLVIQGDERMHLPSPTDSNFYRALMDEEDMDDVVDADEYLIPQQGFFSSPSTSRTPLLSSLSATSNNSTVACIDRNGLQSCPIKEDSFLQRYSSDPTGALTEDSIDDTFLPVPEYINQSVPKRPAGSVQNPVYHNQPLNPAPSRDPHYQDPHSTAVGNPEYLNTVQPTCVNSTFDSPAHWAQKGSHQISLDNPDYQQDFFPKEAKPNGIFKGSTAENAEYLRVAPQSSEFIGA
# [3] = biological target: PDGFR-β (Homo sapiens, UniProt P09619); experiment: PDGFR-β kinase inhibition, phosphotyrosine ELISA in whole cells; format: cell-based; conditions: for PDGFR-β assay: fold less active than DMBI: relative to standard DMBI; for PDGFR-β assay: activity in words: even at 200 micromolar concentrations
# Chain of PDGFR-β (P09619 33-1106): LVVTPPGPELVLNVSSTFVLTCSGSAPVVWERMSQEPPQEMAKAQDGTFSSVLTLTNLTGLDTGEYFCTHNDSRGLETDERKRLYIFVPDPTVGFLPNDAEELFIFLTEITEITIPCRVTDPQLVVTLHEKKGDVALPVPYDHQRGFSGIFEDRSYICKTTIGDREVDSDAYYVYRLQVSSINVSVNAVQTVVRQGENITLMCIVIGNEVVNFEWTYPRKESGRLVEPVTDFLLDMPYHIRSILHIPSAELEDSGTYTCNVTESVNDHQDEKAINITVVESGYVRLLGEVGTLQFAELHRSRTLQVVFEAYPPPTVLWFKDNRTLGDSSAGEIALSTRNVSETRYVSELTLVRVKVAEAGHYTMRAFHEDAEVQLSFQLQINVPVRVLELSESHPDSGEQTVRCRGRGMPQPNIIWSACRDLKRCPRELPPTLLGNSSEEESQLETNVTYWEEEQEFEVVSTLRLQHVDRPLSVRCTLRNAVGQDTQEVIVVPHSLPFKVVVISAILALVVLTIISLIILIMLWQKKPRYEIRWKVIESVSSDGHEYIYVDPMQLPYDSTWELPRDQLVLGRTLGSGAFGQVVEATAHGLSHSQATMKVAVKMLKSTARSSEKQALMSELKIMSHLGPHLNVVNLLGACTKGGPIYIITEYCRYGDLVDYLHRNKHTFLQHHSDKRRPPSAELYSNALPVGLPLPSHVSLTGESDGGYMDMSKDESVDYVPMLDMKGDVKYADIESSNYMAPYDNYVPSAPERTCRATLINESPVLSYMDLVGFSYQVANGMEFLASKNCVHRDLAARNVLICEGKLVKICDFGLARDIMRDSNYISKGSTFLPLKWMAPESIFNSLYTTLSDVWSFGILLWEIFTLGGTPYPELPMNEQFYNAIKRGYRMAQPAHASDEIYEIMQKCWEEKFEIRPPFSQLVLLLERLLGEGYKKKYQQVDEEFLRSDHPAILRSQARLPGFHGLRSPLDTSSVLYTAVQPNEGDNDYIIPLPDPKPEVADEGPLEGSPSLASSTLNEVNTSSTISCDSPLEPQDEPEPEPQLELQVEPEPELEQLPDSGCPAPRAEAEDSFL
# [4] = biological target: VEGFR-2 (Flk-1) (Homo sapiens, UniProt P35968); experiment: VEGFR-2 kinase inhibition, phosphotyrosine ELISA in whole cells; format: cell-based; conditions: for VEGFR-2 assay: fold less potent than semaxanib: relative to standard semaxanib
# Chain of VEGFR-2 (Flk-1) (P35968 20-1356): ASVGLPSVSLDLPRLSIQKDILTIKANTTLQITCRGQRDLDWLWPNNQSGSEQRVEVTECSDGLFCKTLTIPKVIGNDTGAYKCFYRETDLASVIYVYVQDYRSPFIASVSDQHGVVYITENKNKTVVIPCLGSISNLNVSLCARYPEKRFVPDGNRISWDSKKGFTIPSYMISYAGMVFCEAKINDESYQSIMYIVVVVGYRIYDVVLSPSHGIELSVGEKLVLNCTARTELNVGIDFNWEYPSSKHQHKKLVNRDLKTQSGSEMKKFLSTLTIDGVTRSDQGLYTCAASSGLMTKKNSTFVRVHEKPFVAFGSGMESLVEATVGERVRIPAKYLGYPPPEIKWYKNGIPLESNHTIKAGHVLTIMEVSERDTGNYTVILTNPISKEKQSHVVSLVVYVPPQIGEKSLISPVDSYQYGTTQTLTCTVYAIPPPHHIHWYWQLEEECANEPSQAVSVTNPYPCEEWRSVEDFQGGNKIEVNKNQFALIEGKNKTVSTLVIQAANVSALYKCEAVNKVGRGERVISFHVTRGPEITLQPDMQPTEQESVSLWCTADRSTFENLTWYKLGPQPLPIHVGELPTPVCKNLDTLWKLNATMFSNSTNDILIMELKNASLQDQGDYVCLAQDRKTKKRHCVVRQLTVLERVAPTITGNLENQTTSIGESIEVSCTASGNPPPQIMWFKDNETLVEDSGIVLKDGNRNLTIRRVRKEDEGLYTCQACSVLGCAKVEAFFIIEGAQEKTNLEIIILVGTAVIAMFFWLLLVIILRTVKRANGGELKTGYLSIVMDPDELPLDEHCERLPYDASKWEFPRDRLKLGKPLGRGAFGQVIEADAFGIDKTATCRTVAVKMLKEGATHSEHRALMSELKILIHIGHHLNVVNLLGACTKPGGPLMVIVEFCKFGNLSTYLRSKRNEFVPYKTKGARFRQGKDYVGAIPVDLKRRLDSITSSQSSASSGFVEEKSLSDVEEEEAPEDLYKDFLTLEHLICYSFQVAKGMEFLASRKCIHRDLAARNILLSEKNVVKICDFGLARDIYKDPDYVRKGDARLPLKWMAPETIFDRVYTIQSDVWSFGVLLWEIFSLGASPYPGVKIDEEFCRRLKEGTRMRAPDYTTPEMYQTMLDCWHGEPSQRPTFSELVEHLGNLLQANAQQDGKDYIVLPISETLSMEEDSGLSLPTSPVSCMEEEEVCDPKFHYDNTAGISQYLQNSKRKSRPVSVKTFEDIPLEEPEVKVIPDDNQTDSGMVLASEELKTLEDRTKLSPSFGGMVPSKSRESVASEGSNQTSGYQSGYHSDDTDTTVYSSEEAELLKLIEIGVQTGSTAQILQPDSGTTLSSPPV
# [5] = biological target: E. coli TS (Escherichia coli, UniProt P0A884); experiment: Thymidylate synthase; format: biochemical; conditions: number in parentheses; at the concentration stated in the same cell (μM)
# Chain of E. coli TS (P0A884 whole entry): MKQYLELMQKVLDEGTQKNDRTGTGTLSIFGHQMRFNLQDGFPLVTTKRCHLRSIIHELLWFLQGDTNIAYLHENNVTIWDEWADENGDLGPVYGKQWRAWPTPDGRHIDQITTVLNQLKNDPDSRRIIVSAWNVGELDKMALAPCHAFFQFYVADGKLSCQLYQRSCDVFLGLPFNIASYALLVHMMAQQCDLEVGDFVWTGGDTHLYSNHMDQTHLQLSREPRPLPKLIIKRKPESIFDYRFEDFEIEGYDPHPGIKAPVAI
# [6] = biological target: human TS (Homo sapiens, UniProt P04818); experiment: Thymidylate synthase; format: biochemical; conditions: relative to raltitrexed (RTX)
# Chain of human TS (P04818 whole entry): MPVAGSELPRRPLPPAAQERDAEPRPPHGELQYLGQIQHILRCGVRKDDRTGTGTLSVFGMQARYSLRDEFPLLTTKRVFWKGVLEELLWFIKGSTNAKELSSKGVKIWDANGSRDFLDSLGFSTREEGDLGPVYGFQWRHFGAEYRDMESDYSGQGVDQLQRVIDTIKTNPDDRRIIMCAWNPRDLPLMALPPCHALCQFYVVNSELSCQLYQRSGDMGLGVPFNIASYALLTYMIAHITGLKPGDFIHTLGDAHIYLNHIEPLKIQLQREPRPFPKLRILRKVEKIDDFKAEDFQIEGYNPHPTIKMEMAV
# [7] = biological target: T1, E. coli DHFR (Escherichia coli, UniProt P0ABQ4); experiment: Dihydrofolate reductase; format: biochemical; conditions: number in parentheses; at the concentration stated in the same cell (μM)
# T1 sequence (P0ABQ4 whole entry): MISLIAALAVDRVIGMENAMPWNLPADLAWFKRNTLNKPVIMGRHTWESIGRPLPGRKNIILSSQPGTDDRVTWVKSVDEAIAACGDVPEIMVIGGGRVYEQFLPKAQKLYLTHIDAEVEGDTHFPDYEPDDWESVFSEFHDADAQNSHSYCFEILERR
# [8] = biological target: T2, human DHFR (Homo sapiens, UniProt P00374); conditions: number in parentheses; at the concentration stated in the same cell (μM); cited from earlier work
# T2 sequence (P00374 1-187): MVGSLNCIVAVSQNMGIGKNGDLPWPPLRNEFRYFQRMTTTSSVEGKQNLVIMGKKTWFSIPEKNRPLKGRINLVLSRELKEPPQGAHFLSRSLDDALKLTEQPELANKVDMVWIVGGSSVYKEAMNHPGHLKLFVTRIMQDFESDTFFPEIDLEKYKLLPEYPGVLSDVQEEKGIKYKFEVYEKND
# [9] = tested on: COLO-205 xenograft; conditions: COLO-205 xenograft mouse model, cited from earlier work
# [10] = tested on: A431 cancer cells; conditions: read-out: A431 Cytotoxicity IC50; previously evaluated lead compounds; cited from earlier work
# [11] = biological target: T1, E. coli DHFR; conditions: number in parentheses; at the concentration stated in the same cell (μM); cited from earlier work
structure (smiles),measurement,setting,value
COc1ccc(Sc2cccc3[nH]c4nc(N)nc(N)c4c23)cc1 [Compound 6],A431 cytotoxicity assay: fold less active than cisplatin,[1],about 6 fold
same,EGFR assay: fold less active than standard 24,[2],about 100 fold
same,PDGFR-β assay: fold less active than DMBI,[3],about 16 fold
same,VEGFR-2 assay: fold less potent than semaxanib,[4],15 fold
same,"TS E. coli, percent inhibition at the stated concentration",[5],0%
COc1ccc(OC)c(Sc2cccc3[nH]c4nc(N)nc(N)c4c23)c1 [Compound 5],A431 cytotoxicity assay: fold less active than cisplatin,[1],about 4 fold
same,hTS assay: fold less active than RTX,[6],3 fold
same,EGFR assay: fold less active than standard 24,[2],22 fold
same,PDGFR-β assay: activity in words,[3],inactive
same,VEGFR-2 assay: fold less potent than semaxanib,[4],equipotent
same,"DHFR E. coli, percent inhibition at the stated concentration",[7],0%
Nc1nc(N)c2c(n1)[nH]c1cccc(Sc3ccccc3)c12 [Compound 1],"DHFR Human, percent inhibition at the stated concentration",[8],17%
same,tumor growth inhibition (TGI),[9]; 35 mg/kg,76%
same,liver metastases,[9]; compared with DMBI and control,significantly decreased
same,tumor blood vessels,[9]; compared with DMBI and control,significantly decreased
same,IC50,[10],49.2 ± 4.7 µM
same,"DHFR E. coli, percent inhibition at the stated concentration",[11],35%
Nc1nc(N)c2c(n1)[nH]c1cccc(Sc3ccc4ccccc4c3)c12 [Compound 3],A431 cytotoxicity assay: fold less active than cisplatin,[1],about 4 fold
same,EGFR assay: fold less active than standard 24,[2],100 fold
same,PDGFR-β assay: fold less active than DMBI,[3],24 fold
same,VEGFR-2 assay: fold less potent than semaxanib,[4],13 fold
same,"TS E. coli, percent inhibition at the stated concentration",[5],0%
Nc1nc(N)c2c(n1)[nH]c1cccc(Sc3ccc(Cl)cc3)c12 [Compound 7],A431 cytotoxicity assay: fold less active than cisplatin,[1],equipotent
same,hTS assay: fold more potent than RTX,[6],equipotent
same,EGFR assay: fold less active than standard 24,[2],40 fold
same,PDGFR-β assay: activity in words,[3],inactive
same,VEGFR-2 assay: activity in words,[4],inactive
same,"DHFR E. coli, percent inhibition at the stated concentration",[7],0%
Nc1nc(N)c2c(n1)[nH]c1cccc(Sc3cccc4ccccc34)c12 [Compound 4],A431 cytotoxicity assay: activity in words,[1]; even at 200 micromolar concentration,inactive
same,hTS assay: fold less active than RTX,[6],6 fold
same,EGFR assay: fold less active than standard 24,[2],835 fold
same,PDGFR-β assay: fold less active than DMBI,[3],about 16 fold
same,VEGFR-2 assay: fold less potent than semaxanib,[4],16 fold
Cc1ccc(Sc2cccc3[nH]c4nc(N)nc(N)c4c23)cc1 [Compound 2],"DHFR Human, percent inhibition at the stated concentration",[8],7%
same,IC50,[10],14.1 ± 2 µM
same,"DHFR E. coli, percent inhibition at the stated concentration",[11],27%
